Reference: patent publication US7179612B2, “Method for detecting a lipoprotein-acute phase protein complex and predicting an increased risk of system failure or mortality” (bioMerieux, Inc., priority 2000, dated 2007)

What was measured:
[1] = molecular target: T1, VLDL/CRP complex (Homo sapiens, UniProt P02741); assay: Inhibition of VLDL/CRP complex formation (Ca2+-dependent turbidity change); assay type: biochemical
T1 sequence (P02741 19-224): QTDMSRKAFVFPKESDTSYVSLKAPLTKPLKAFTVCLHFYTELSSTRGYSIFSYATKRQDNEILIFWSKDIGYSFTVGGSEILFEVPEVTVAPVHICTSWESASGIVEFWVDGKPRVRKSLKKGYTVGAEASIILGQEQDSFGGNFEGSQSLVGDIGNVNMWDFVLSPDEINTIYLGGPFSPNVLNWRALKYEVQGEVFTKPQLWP
Text: It is known that CRP binds directly to PC and that PC competes with lipoproteins for binding to CRP.

[2] = molecular target: T1, VLDL/CRP complex; assay: Calcium concentration dependence of formation of the VLDL/CRP complex; assay type: biochemical; settings: FIG. 38; read-out: calcium concentration at which complex formation is half maximal
Procedure: FIG. 38 is a graph depicting the calcium concentration dependence of formation of the VLDL/CRP complex. Complex formation is half maximal at 5.0 mM calcium.

[3] = molecular target: T2, CRP (Homo sapiens, UniProt P02741); assay: Direct binding of apo(B) to CRP
T2 construct: from tissue; host or cells: patient plasma (calcium precipitate, ammonium sulfate fractionation, Q-Sepharose peak 3)
T2 sequence (P02741 19-224): T1 sequence (P02741 19-224)

Compound	inhibition of complex formation (result in words) [1]	further results
NCCCCCC(=O)O [EACA]	inhibited	IC50 ([1]; FIG. 40): 2.1 mM
[Ca+2] [calcium]	–	EC50 [2]: 5 mM
NCCOP(=O)(O)O [phosphorylethanolamine]	inhibited	–
apo(B): apo-lipoprotein B, the major protein component of VLDL	–	direct binding to CRP (result in words) [3]: can bind directly to CRP
phosphotidylcholine	inhibited	–
phosphotidylethanolamine	inhibited	–
